From publication PMC6928345, “Detection and functional characterization of sigma class GST in Phlebotomus argentipes and its role in stress tolerance and DDT resistance” (Scientific Reports, 2019)

Columns and labels:
[1] = biological target: T1, rParg-GSTσ (sigma class GST of P. argentipes) (Phlebotomus argentipes, UniProt A0A5A4I953); assay: spectrophotometric GSH conjugation assay, […] nm; assay type: biochemical; conditions: 1 mM GSH, CDNB 0.07–8 mM, sodium phosphate pH 6.5, room temperature
T1 construct: PCR primers designed on P. papatasi GSTσ
T1 sequence (A0A5A4I953 1-203): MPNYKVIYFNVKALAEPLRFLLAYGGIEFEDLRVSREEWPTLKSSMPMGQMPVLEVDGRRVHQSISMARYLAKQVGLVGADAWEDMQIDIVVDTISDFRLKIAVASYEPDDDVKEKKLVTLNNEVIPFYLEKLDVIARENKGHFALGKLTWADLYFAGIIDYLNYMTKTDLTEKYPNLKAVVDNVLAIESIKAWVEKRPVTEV

[2] = biological target: T1, rParg-GSTσ (sigma class GST of P. argentipes); assay: inhibition of GST activity, residual activity; assay type: biochemical
[3] = substrate: CC(C)(OO)c1ccccc1; assay: purified protein; assay type: biochemical, Phlebotomus argentipes; conditions: 1 mM GSH, 0.2 mM NADPH, 1 mM EDTA, cumene hydroperoxide 0.08–1.0 mM, sodium phosphate buffer
[4] = substrate: CCCCCC(O)/C=C/C=O; assay: purified protein; assay type: biochemical, Phlebotomus argentipes; conditions: 1 mM GSH, 4-HNE 10–100 µM, sodium phosphate buffer

Molecule: O=[N+]([O-])c1ccc(Cl)c([N+](=O)[O-])c1 [CDNB]
- Km [1]: 390 µM

Molecule: C=C(CC)C(=O)c1ccc(OCC(=O)O)c(Cl)c1Cl [Ethacrynic acid]
- IC50 [2]: 0.05 µM

B1: rParg-GSTσ (sigma class GST of P. argentipes) (Phlebotomus argentipes) (protein)
chain: MPNYKVIYFNVKALAEPLRFLLAYGGIEFEDLRVSREEWPTLKSSMPMGQMPVLEVDGRRVHQSISMARYLAKQVGLVGADAWEDMQIDIVVDTISDFRLKIAVASYEPDDDVKEKKLVTLNNEVIPFYLEKLDVIARENKGHFALGKLTWADLYFAGIIDYLNYMTKTDLTEKYPNLKAVVDNVLAIESIKAWVEKRPVTEV
notes: PCR primers designed on P. papatasi GSTσ
- Km [3]: 180 µM
- Km [4]: 5.02 µM
